{
  "source": "patent US20250367163A1",
  "about": "“PHARMACEUTICAL COMPOSITION FOR PREVENTING OR TREATING DEGENERATIVE EYE DISEASES” (GLACEUM, INC., priority 2021, published 2025)",
  "key": {"[1]": {"test_system": "retinal lesion (wet-AMD) induced by laser photocoagulation", "assay": "Lesion volume in laser-induced CNV wet-AMD mouse model (FITC-dextran, Z-stack 3D imaging)", "format": "in vivo", "details": "for efficacy on lesion compared with positive control anti-VEGF agent (FIG. 1) / lesion formation / lesion volume (FIG. 1): oral, from 6 days before and for 7 days after inducing wet-AMD; for efficacy on lesion compared with positive control anti-VEGF agent (FIG. 1): Eylea injected into the eye as positive control; for lesion formation / lesion volume (FIG. 1): male C57BL/6 mice", "method": "Male C57BL/6 mice were anesthetized with zoletil and rompun, and a retinal lesion (wet-AMD) was induced by performing three laser photocoagulations at the 2 o'clock, 6 o'clock, and 10 o'clock positions at on the retina of the mouse eye under a slit-lamp microscope. Each of Compound 1-2 and Compound 1-18 was administered orally starting from 6 days before inducing wet-AMD, and was administered orally for 7 days after inducing the disease. Eylea (Bayer, Germany), used as a positive control, was administered by direct injection into the eye immediately after induction of the disease model.\nAfter weighing each mouse, FITC-dextran (SIGMA, #46944) diluted in saline at a concentration of 5 mg/kg was injected into the tail veins of the mice to which each of Compound 1-2 and Compound 1-18 has been administered for 7 days after inducing the wet-AMD model. 3D images of the lesions were obtained using the Z-stack imaging technique, and the volumes of the lesions on the images were quantitatively measured.\n(§1) Changes after administering Compound 1-2 for 7 days after induction of the disease without administration before induction of the disease to the wet-AMD mouse model induced in the same manner as in Experimental Example 1 were analyzed. In the same manner as Experimental Example 1, the image of the lesion was obtained and the volume of the lesion was quantified.\nas §1, with “co-administering” for “administering”, “1-2 and the anti-VEGF agent (Eylea)” for “1-2”\nas §1, with “1-2 at concentrations of 25, 50 and 100 mg/kg” for “1-2”, “administration of Compound 1-2” for “administration”"}, "[2]": {"test_system": "mitochondrial reactive oxygen species in RPE cells", "assay": "Mitochondrial reactive oxygen species (MitoSOX) in RPE cells from wet-AMD (CNV) animal model", "format": "in vivo, mouse", "details": "for mitochondrial reactive oxygen species in RPE cells (FIG. 2) / efficacy on mitochondrial reactive oxygen species compared with positive control anti-VEGF agent (FIG. 2): oral, from 6 days before and for 7 days after inducing wet-AMD; for efficacy on mitochondrial reactive oxygen species compared with positive control anti-VEGF agent (FIG. 2): Eylea as positive control", "from_the_text": "(§2) RPE cells were isolated from the same model as in Experimental […] changes in mitochondrial reactive oxygen species in the RPE cells were examined through fluorescence microscopy. Specifically, immediately after enucleation of the mouse eye, mitochondria and nuclei were stained using the MitoSOX™ (Invitrogen, #M36008) kit and imaged with a fluorescence microscope at a fluorescence wavelength of 510/580 nm, and changes in reactive oxygen species in the mitochondria were measured.\nRPE cells were isolated from the same model as in Experimental Example 3 and stained with MitoSOX, and changes in mitochondrial reactive oxygen species in the RPE cells were examined through fluorescence microscopy. Measurement was performed in the same manner as in Experimental Example 2.\nRPE cells were isolated from the same model as in Experimental Example 5 and stained with MitoSOX, and changes in mitochondrial reactive oxygen species in the RPE cells were examined through fluorescence microscopy. Measurement was performed in the same manner as in Experimental Example 2.\nRPE cells were isolated from the same model as in Experimental Example 7 and stained with MitoSOX, and changes in mitochondrial reactive oxygen species in the RPE cells were examined through fluorescence microscopy. Measurement was performed in the same manner as in Experimental Example 2."}, "[3]": {"test_system": "lesion in the eyeball, Alu-RNA dry-AMD model", "assay": "Fundus photography of eyeball lesion in Alu-RNA animal model (dry-AMD)", "format": "in vivo, mouse", "details": "oral, from 6 days before and for 7 days after induction of dry-AMD (1.2 μg Alu-RNA subretinal)", "method": "(§3) Male C57BL/6 mice were anesthetized, and a lesion was induced by making a hole in the corneal limbus of the mouse eye and injecting 1.2 μg of Alu-RNA into the subretinal space by a Hamilton syringe. Each of Compound 1-2 and Compound 1-18 was administered orally starting from 6 days before induction of the dry-AMD model, and was administered orally for 7 days after induction of the disease. To evaluate the dry-AMD preventive and therapeutic effects of each of Compound 1-2 and Compound 1-18, the morphology of the lesion was evaluated by fundus photography using TOPCON #TRC-50DX."}, "RPE cytoskeleton": {"test_system": "RPE cytoskeleton", "assay": "RPE cell structure (ZO-1 staining) in Alu-RNA animal model (dry-AMD)", "format": "in vivo, mouse", "details": "oral, from 6 days before and for 7 days after induction of dry-AMD", "method": "as §3\nRPE cells were isolated from the same model as in Experimental Example 9 and stained for ZO-1, and changes in the structure of the RPE cells were examined under a fluorescence microscope (Olympus SZ51, Tokyo, Japan). Specifically, immediately after enucleation of the mouse eye, the RPE cytoskeleton was stained for zonula occludens-1 (ZO-1) and imaged with a fluorescence microscope through the Z-stack imaging technique, and changes in the RPE cytoskeleton were imaged."}, "[4]": {"test_system": "mitochondrial reactive oxygen species in RPE cells", "assay": "Mitochondrial reactive oxygen species (MitoSOX) in RPE cells from Alu-RNA animal model (dry-AMD)", "format": "in vivo, mouse", "details": "oral, from 6 days before and for 7 days after induction of dry-AMD", "from_the_text": "as §2, §3\nRPE cells were isolated from the same model as in Experimental Example 9 and stained with MitoSOX, and changes in mitochondrial reactive oxygen species in the RPE cells were examined through fluorescence microscopy. Measurement was performed in the same manner as in Experimental Example 2."}, "[5]": {"test_system": "inflammation-related mRNA in RPE cells", "assay": "Inflammatory factor mRNA (real-time PCR) in RPE cells from Alu-RNA animal model (dry-AMD)", "format": "in vivo, mouse", "details": "oral, from 6 days before and for 7 days after induction of dry-AMD", "method": "as §3\nRPE cells were isolated from the same model as in Experimental Example 9, and the relative expression level of inflammation-related mRNA was analyzed using real-time PCR. […] 100 pmol of oligo Dt17 primer was added to 1 μg of total RNA which was then incubated at 74° C. for 10 minutes, and then 30 U of RNAsin (RNase inhibitor), 10 U of AMV-RT (avian myeloblastosis virus-reverse transcriptase), and AMV-RT buffer (Promega, Israel) were added thereto and reacted at 42° C. for 2 hours and at 52° C. for 1 hour, thereby synthesizing cDNA from the RNA extracted from the […]. cDNA was amplified using the SYBR Premix Ex Taq kit (Takara Bio, Inc.) and the StepOnePlus Real-time PCR system (Applied Biosystems), and then mRNA expression was measured."}, "[6]": {"details": "25, 50 and 100 mg/kg for 7 days after induction of the disease"}, "[7]": {"details": "administered for 7 days after induction of the disease, none before induction"}},
  "data": [
    {"smiles": "CCCOc1ccc([C@@H]2COc3c(ccc4c3CCC(C)(C)O4)C2)c(O)c1", "note": "[Compound 1-18]", "values": [
      {"measurement": "efficacy on lesion compared with positive control anti-VEGF agent (FIG. 1)", "setting": "[1]", "value": "efficacy equivalent to that of the positive control anti-VEGF agent"},
      {"measurement": "lesion formation / lesion volume (FIG. 1)", "setting": "[1]", "value": "inhibited lesion formation"},
      {"measurement": "mitochondrial reactive oxygen species in RPE cells (FIG. 2)", "setting": "[2]", "value": "reduced mitochondrial reactive oxygen species"},
      {"measurement": "efficacy on mitochondrial reactive oxygen species compared with positive control anti-VEGF agent (FIG. 2)", "setting": "[2]", "value": "efficacy equivalent to that of the positive control anti-VEGF agent"},
      {"measurement": "lesion in the eyeball by fundus photography (FIG. 9)", "setting": "[3]", "value": "reduced the lesion in the eyeball"},
      {"measurement": "RPE cytoskeleton, ZO-1 staining (FIG. 10)", "setting": "RPE cytoskeleton", "value": "restored the damaged RPE cytoskeleton"},
      {"measurement": "mitochondrial reactive oxygen species in RPE cells (FIG. 11)", "setting": "[4]", "value": "reduced mitochondrial reactive oxygen species"}
    ]},
    {"smiles": "CCOc1ccc(C2COc3c(ccc4c3CCC(C)(C)O4)C2)c(O)c1", "note": "(stereo not shown) [Compound 1-2]", "values": [
      {"measurement": "lesion volume depending on concentration (FIG. 7)", "setting": "[1]; [6]", "value": "reduced in a manner dependent on the concentration"},
      {"measurement": "efficacy on lesion compared with positive control anti-VEGF agent (FIG. 3)", "setting": "[1]; [7]", "value": "efficacy equivalent to that of the positive control anti-VEGF agent"},
      {"measurement": "lesion formation / lesion volume (FIG. 3)", "setting": "[1]; [7]", "value": "suppressed formation of the lesion"},
      {"measurement": "efficacy on lesion compared with positive control anti-VEGF agent (FIG. 1)", "setting": "[1]", "value": "efficacy equivalent to that of the positive control anti-VEGF agent"},
      {"measurement": "lesion formation / lesion volume (FIG. 1)", "setting": "[1]", "value": "inhibited lesion formation"},
      {"measurement": "efficacy in reducing mitochondrial reactive oxygen species at 100 mg/kg (FIG. 8)", "setting": "[2]; 100 mg/kg versus 25 and 50 mg/kg, 7 days after induction of the disease", "value": "highest efficacy"},
      {"measurement": "mitochondrial reactive oxygen species in RPE cells depending on concentration (FIG. 8)", "setting": "[2]; [6]", "value": "reduced mitochondrial reactive oxygen species in a concentration-dependent manner"},
      {"measurement": "efficacy on mitochondrial reactive oxygen species compared with positive control anti-VEGF agent (FIG. 4)", "setting": "[2]; [7]", "value": "efficacy equivalent to that of the positive control anti-VEGF agent"},
      {"measurement": "mitochondrial reactive oxygen species in RPE cells (FIG. 4)", "setting": "[2]; [7]", "value": "reduced mitochondrial reactive oxygen species"},
      {"measurement": "mitochondrial reactive oxygen species in RPE cells (FIG. 2)", "setting": "[2]", "value": "reduced mitochondrial reactive oxygen species"},
      {"measurement": "efficacy on mitochondrial reactive oxygen species compared with positive control anti-VEGF agent (FIG. 2)", "setting": "[2]", "value": "efficacy equivalent to that of the positive control anti-VEGF agent"},
      {"measurement": "lesion in the eyeball by fundus photography (FIG. 9)", "setting": "[3]", "value": "reduced the lesion in the eyeball"},
      {"measurement": "RPE cytoskeleton, ZO-1 staining (FIG. 10)", "setting": "RPE cytoskeleton", "value": "restored the damaged RPE cytoskeleton"},
      {"measurement": "mitochondrial reactive oxygen species in RPE cells (FIG. 11)", "setting": "[4]", "value": "reduced mitochondrial reactive oxygen species"},
      {"measurement": "inflammatory factors in RPE cells, relative mRNA expression (FIG. 12)", "setting": "[5]", "value": "effectively reduced"}
    ]}
  ]
}
